Test results as given in US10836767B2, “Serum stable pro-coelenterazine analogues” (PROMEGA CORPORATION, priority 2017, dated 2020).
Entries after “also recorded” stand apart in the source; their conditions may differ.

Experiments:
[1] = tested on: CMV promoter-NanoLuc® gene transfected HEK293 cells; assay: Live cell reporter gene assay, luminescent signal decay over time with/without porcine liver esterase (PLE); assay type: cell-based; conditions: DMEM, 10% FBS
Protocol: The synthesized pro-coelenterazine or pro-furimazine compounds were evaluated in a live cell reporter gene assay. As shown in FIGS. 3A-C, the luminescent signal decays were monitored over time in HEK293 cells in DMEM media with 10% FBS transfected with 10 ng/well of CMV promoter-NanoLuc® gene with/without adding exogenous esterase porcine liver esterase (PLE) with three representative pro-coelenterazine analogues, e.g. serum instable compound WZ-0308, traditional live cell pro-substrate PBI-4377, and disclosed serum stable compound WZ-0324. The evaluations were performed by the following protocol.
Day 1: Plate cells. HEK293 cells were grown in complete medium (DMEM+10% FBS+1× Non-Essential Amino Acids (NEAA)). The cells were harvested at passasge 6 (˜95% confluent), by a procedure of: washing with DPBS, treating the cells with TrypLE Express until cells dislodged, adding 4× volumes of complete medium, pelleting at 188×g for 2 minutes, and suspending the cells in complete medium to 7.35E4 cells/mL. The cells were plated 100 μL per well into the inner 60 wells of 96-well plates (7,350 cells per well): 100 μL DPBS in the 36 outside wells and 100 μL DPBS between wells. The cells were than incubated overnight at 37° C., 5% CO2.
Day 2: Transfection. Two two master mixes (MM) were made: MM#1: 1.63 μL prep #1; 9.5 μL prep #3; 1.9 mL OM1; and MM#2: 2.9 uL prep #2; 9.5 μL prep #3; 1.9 mL OM1. 35.6 μl FuGENE HD was added to each MM and mixed by pipetting up/down. The mixture was incubated for ˜10 minutes at room temperature. Next, 8 μL of the mixture was added per well using single channel repeater pipette; n=3 per condition. The mixture was then incubated for ˜24 hours at 37° C., 5% CO2.
(§1) Day 3: Live cell assay. Stocks of tested compounds in DMSO (500×) were prepared by serial dilution of 50 mM stock with DMSO. The Medium+/− porcine liver esterase (PLE) at room temperature was prepared by adding 1 and 0.333 ug/ml PLE in CO2 IM+10% FBS. CO2 IM+10% FBS with no added PLE was also prepared. Next, medium+test compound solutions (room temperature) was prepared by the steps of: adding 2 mL of respective medium per channel, adding 4 μL respective tested compound stock per channel and mixing by pipetting up/down 10-15×. The final DMSO concentration was 0.2% v/v. The DMSO solution was dropped to the bottom of the channel, showing precipitation for the higher concentrations. After pipetting up/down, solutions with WZ-0324 at a final concentration of ≥50 uM were noticeably hazy (100 uM>75 uM>50 uM), in some cases even after extended incubation at 37° C. The Solutions were allowed to stand at room temperature for 15-20 minutes prior to addition to cells (P1->P2->P3).
The medium was aspirated and replaced with 200 μL/well of respective medium+tested compound solution. DPBS was added to 200 μL total to outside 36× wells. The system was quickly moved to respective GMM+ to start RLU measurements at 37° C. The measuments were carried out under the following conditions: 1 second integration time; RLU measurement every 15 minutes; the lid was removed for the overnight RLU measurements; and initial RLU measurement would be <37° C. owing to the addition of room temperature medium and cooling of the plate.
Data analysis: average RLU plotted for n=3; error represented as standard deviation was included in each imbedded Prism file, but not shown for the sake of clarity in interpreting the curves.

[2] = Haze (solubility) observation of medium + test compound solutions; assay type: physicochemical; conditions: for concentration above which haze was observed: medium + compound solution
Protocol: as §1

[3] = tested on: DLD-1 cells; assay: Complementary NanoLuc fragment-fused Annexin V real-time apoptosis assay; assay type: cell-based; conditions: 10,000 DLD-1 cells/well; rhTRAIL; t=3.5, 7, 24 and 30 hr
Description: Small and large fragments of luciferase have been engineered as fusion proteins linked to annexin V for detecting of apoptosis in real-time using a plate-reading luminometer. The individual annexin V-luciferase fragment fusion pairs have low intrinsic affinity for each other, and thus produce no or low luminescence in culture medium or in the presence of non-apoptotic cells; but, when the annexin V-luciferase fragment fusion proteins bind in close proximity to phosphatidylserine exposed on the surface of apoptotic cells, the luciferase fragments reconstitute an active enzyme and generate a luminescent signal.
General protocol for complementary NanoLuc® fragment-fused-Annexin V binding: DLD-1 cells (10,000/well; 100 μL) were plated in medium+10% FBS and 2× CellTox Green in a solid white 96-well plate. After the cells were allowed to attach, 50 μL of recombinant human TRAIL at final concentration 500 ng/ml in medium+10% FBS fortified with 1 mM CaCl2 was added. […] The plate was incubated at 37° C./5% CO2 in a tissue culture incubator, and luminescence and fluorescence (Ex 485/Em 520) was measured kinetically at the indicated time points. […] The kinetically preceded increases in fluorescence of Cytotox Green indicate cell death. […]

[4] = Stability test by HPLC in DMSO or DMEM media with or without fetal bovine serum; assay type: in vitro ADME; conditions: 40 μM; DMEM media with 10% FBS; 10 hours
Protocol: “Serum stability” refers to the stability of a compound in media or culture that includes serum. The serum as used herein may include, but is not limited to, fetal bovine serum (FBS). Serum stability of a compound as used herein generally may be characterized by the extent of degradation of such compound in a serum over a period of time. For example, a compound may degrade by less than 25%, less than 20%, less then 15%, or even less than 10% in FBS over a period of 24 hours or longer. For live cell assays, serum (such as FBS) is a component to maintain cell health. The degree of degradation of the disclosed compounds or the other pro-coelenterazine analogues in DMSO control, or DMEM media with/without FBS, can be monitored by HPLC using specific elution solvent/buffer (e.g. 0.1% TFA and acetonitrile) under the same condition at certain time of points. The percentage of purity can be calculated by the peak area of the tested compound divided by the total peak areas including tested compound and degradation compounds at their corresponding retention time at certain absorbance wavelength (e.g. 260 nm) at certain time point in media with/without FBS. The changes of purity for a given compound over time indicate the degree of instability of the compound in media/culture with/without serum.
The tested compounds were dissolved in DMSO stock at a concentration of 20 mM. […]

[5] = tested on: HEK 293 cells transiently transfected with SmBiT-PRKACA and LgBiT-PRKAR2A; assay: Live cell assay, luminescent signal decay over time in HEK293 cells expressing the PKA NanoBiT pair; assay type: cell-based; conditions: DMEM, 4% FBS; for strength of signal relative to PBI-4377: concentration above 20 uM; for luminescent signal decay: almost independent of concentration
Protocol: Compounds WZ-0429, WZ-0439, WZ-0454, WZ-0441, WZ-0451. WZ-0416, WZ-0420, WZ-0461 and WZ-0419 were tested in HEK 293 cells transiently transfected plasmid DNA constructs for SmBiT-PRKACA and LgBiT-PRKAR2A expressed via the HSV-TK promoter in DMEM media with 4% FBS, and the luminescent signal decays were monitored over time. […] In contrast, the serum instable compounds, WZ-0429. […] The evaluations of compounds WZ-0429, WZ-0439, WZ-0454, WZ-0441, WZ-0451. WZ-0416, WZ-0420, WZ-0461 and WZ-0419 were performed by the following protocol.
Day 1, plate cells. HEK293 cells were grow in complete medium [DMEM+10% FBS+1× NEAA]. Cells were plated at approximately 10,000 cells per well (100 μL) in 96-well plates (Corning 3917).
Day 2, transient transfection. Plasmid DNA constructs for SmBiT-PRKACA and LgBiT-PRKAR2A expressed via the HSV-TK promoter were diluted to 6.25 ng/μL in Opti-MEM® I and FuGENE HD was added at a 3:1 lipid:DNA ratio. After a 5-10 minute incubation at room temperature, 8 μl of lipid:DNA solution was added per well, and cells were incubated in a 37° C., 5% CO2 incubator overnight.
Day 3, live cell assay. Compounds were dissolved to 50 mM final in DMSO. Compounds were diluted in DMSO to give 33.3, 16.7 and 6.7 mM stocks. DMSO stock solutions were diluted 667-fold in Opti-MEM® I to give 1× solutions. Complete medium was aspirated and replaced with the respective 1× solution containing 75, 50, 25 or 10 uM of the respective compounds (0.15% v/v DMSO final), such as WZ-0429, WZ-0439, WZ-0454, WZ-0441WZ-0451, WZ-0416, WZ-0420 and WZ-0419, but containing 40, 30, 20 or 10 μM as an instead for compound WZ-0461. Luminescence was measured on a GloMax Multi Plus luminometer every 15 minutes at 37° C. using a 1 second integration time.

With `CC(=O)OCOc1c(Cc2ccco2)nc2c(Cc3ccccc3)nc(-c3ccccc3)cn12` [WZ-0308] the “signal at the initial time point” value [1] was “highest signal”, the luminescent signal decay ([1]; FIG. 3A) was “rapid signal decay” and the “period of rapid luminescent signal decay” value ([1]; even without exogenous PLE) was 2 to 3 h.
In the case of `COCCOCCOCC(C)(C)C(=O)OCOc1c(Cc2ccco2)nc2c(Cc3ccccc3)nc(-c3ccccc3)cn12` [WZ-0324, ((8-benzyl-2-(furan-2-ylmethyl)-6-phenylimidazo[1,2-a]pyrazin-3-yl)oxy)methyl 3-(2-(2-methoxyethoxy)ethoxy)-2,2-dimethylpropanoate], the “luminescence after addition of exogenous PLE esterase versus without PLE” value ([1]; PLE added) is reported as “significantly enhanced; also recorded: significantly higher luminescence”, the “signal in the absence of exogenous PLE esterase, versus PBI-4377” value ([1]; no PLE) is reported as “higher signal” and the “final concentration at which solutions were noticeably hazy” value ([2]; CO2 IM + 10% FBS, 0.2% v/v DMSO, after pipetting up/down) is reported as at least 50 µM. For the same compound, the “concentration above which haze was observed” value [2] was “above 70 μM” and the “concentration above which haze was observed” value ([2]; listed as WZ-324) was over 70 µM.
For `COCCOCCOCCOCC(C)(C)C(=O)OCOc1c(Cc2ccco2)nc2c(Cc3ccccc3)nc(-c3ccccc3)cn12` [WZ-0336, ((8-benzyl-2-(furan-2-ylmethyl)-6-phenylimidazo[1,2-a]pyrazin-3-yl)oxy)methyl 13,13-dimethyl-2,5,8,11-tetraoxatetradecan-14-oate], the “luminescence response to TRAIL with the compound as pro-substrate” value [3] was “dose-dependent increases in luminescence”.
With `CC(C)C(=O)OCOc1c(Cc2ccco2)nc2c(Cc3ccccc3)nc(-c3ccccc3)cn12` [WZ-0415] the “degradation (HPLC purity change)” value [4] was “approximately 50%”.
In the case of `O=C(OCOc1c(Cc2ccco2)nc2c(Cc3ccccc3)nc(-c3ccccc3)cn12)c1ccccc1` [WZ-0416, ((8-benzyl-2-(furan-2-ylmethyl)-6-phenylimidazo[1,2-a]pyrazin-3-yl)oxy)methyl benzoate], the “signal strength (brightness) relative to PBI-4377” value [5] is reported as “comparable or slightly better”.
In the case of `O=C(OCOc1c(Cc2ccco2)nc2c(Cc3ccccc3)nc(-c3ccccc3)cn12)c1ccco1` [WZ-0420, ((8-benzyl-2-(furan-2-ylmethyl)-6-phenylimidazo[1,2-a]pyrazin-3-yl)oxy)methyl furan-2-carboxylate], the “strength of signal relative to PBI-4377” value [5] is reported as 10 times.
In the case of `O=C(OCOc1c(Cc2ccco2)nc2c(Cc3ccccc3)nc(-c3ccccc3)cn12)C1CCCO1` (stereo not drawn) [WZ-0429], the luminescent signal decay [5] is reported as “rapid signal decay”.
With `O=C(OCOc1c(Cc2ccco2)nc2c(Cc3ccccc3)nc(-c3ccccc3)cn12)C1CCOC1` (stereo not drawn) [WZ-0439] the luminescent signal decay [5] was “rapid signal decay”.
For `C=CCOC(=O)N1CCC(C(=O)OCOc2c(Cc3ccco3)nc3c(Cc4ccccc4)nc(-c4ccccc4)cn23)C1` (stereo not drawn) [WZ-0441], the luminescent signal decay [5] was “rapid signal decay”.
With `COC(C)(C)C(=O)OCOc1c(Cc2ccco2)nc2c(Cc3ccccc3)nc(-c3ccccc3)cn12` [WZ-0451, ((8-benzyl-2-(furan-2-ylmethyl)-6-phenylimidazo[1,2-a]pyrazin-3-yl)oxy)methyl 2-methoxy-2-methylpropanoate] the “strength of signal relative to PBI-4377” value [5] was 10 times.
With `COC(OC)C(=O)OCOc1c(Cc2ccco2)nc2c(Cc3ccccc3)nc(-c3ccccc3)cn12` [WZ-0454] the luminescent signal decay [5] was “rapid signal decay”.
For `O=C(OCOc1c(Cc2ccco2)nc2c(Cc3ccccc3)nc(-c3ccccc3)cn12)c1ccoc1` [WZ-0461, ((8-benzyl-2-(furan-2-ylmethyl)-6-phenylimidazo[1,2-a]pyrazin-3-yl)oxy)methyl furan-3-carboxylate], the “signal strength (brightness) relative to PBI-4377” value [5] was “comparable or slightly better”.
